Where a name gives a salt, the structure may show the parent alone. Read-outs that look alike come from different tables or passages of the source.

The conditions of data set [1]: boiling point; Table 2, preferred dielectric compounds; cited from earlier work.
The nature of data set [2]: Dielectric strength by ASTM D2477. Type of data set: physicochemical. Conditions: 1 atmosphere pressure, 0.1 inch gap, ambient temperature; ASTM D2477 or from literature.
A short description of data set [3]: Breakdown voltage at maximum system pressure. The class given is physicochemical. As to conditions: for Breakdown voltage at maximum pressure: at maximum pressure: 5 atmospheres (73.5 psia), or lower pressure at which the gas liquefies; for Breakdown voltage compared with air: 1 atmosphere and maximum system pressure.
For data set [4] the following is noted: gas phase; cited from earlier work.
For data set [5] the following is noted: atmospheric pressure; cited from earlier work.
For data set [6] the following is noted: normal state; cited from earlier work.

For the molecule `CC(N)C(=O)O` (racemic) [DL-2-aminopropanoic acid], the “MY BP” value in data set [1] is −50.2 °C.

As for `FCC(F)(F)F` [1,1,1,2-Tetrafluoroethane], in data set [1], the “MY BP” value was −26.1 °C. As for `FC(F)(F)C#CC(F)(F)F` [1,1,1,4,4,4-hexafluoro-2-butyne], in data set [1], the “MY BP” value is −24.6 °C. Take `FC(F)C(F)F` [1,1,2,2-Tetrafluoroethane]: the “MY BP” value in data set [1] is −23.0 °C. Turning to `O=C(C(=O)C(F)F)C(F)F` [1,1,4,4-tetrafluoro-butane-2,3-dione], the “MY BP” value in data set [1] is −81.0 °C. Turning to `C#CC(F)(F)F` [3,3,3-trifluoro-propyne], the “MY BP” value in data set [1] was −48.0 °C. As for `N` [Ammonia], the “MY BP” value in data set [1] is −33.3 °C.

Consider `FCF` [Difluoromethane], for which the “MY BP” value in data set [1] is −51.7 °C.

For `FC(F)OC(F)(F)F` [Difluoromethyl trifluoromethyl ether], the “MY BP” value in data set [1] is −35.3 °C. Consider `CC` [Ethane], for which, in data set [1], the “MY BP” value is −88.6 °C.

In the case of `COC(F)(F)F` [Ether, methyl trifluoromethyl], the “MY BP” value in data set [1] is −24.0 °C.

Take `CCF` [Fluoroethane]: in data set [1], the “MY BP” value is −37.7 °C. `FC(F)C(F)(F)F` [Gas R125, Pentafluoroethane] yielded a Dielectric strength in data set [2] of 6.4 kV/0.1 inch gap. Moreover, the “Breakdown voltage at maximum pressure” value in data set [3] was 32 kV/0.1 inch gap.

Turning to `FCC(F)(F)F` [Gas R134a, 1,1,1,2-Tetrafluoroethane], the Dielectric strength in data set [2] is listed as 6.6 kV/0.1 inch gap. Moreover, in data set [3], the “Breakdown voltage at maximum pressure” value is 33 kV/0.1 inch gap.

Consider `CC(F)(F)F` [Gas R143a, 1,1,1-Trifluoroethane], for which, in data set [2], the Dielectric strength turned out to be 5.8 kV/0.1 inch gap. Moreover, the “Breakdown voltage at maximum pressure” value in data set [3] was determined as 29 kV/0.1 inch gap.

In the case of `CC(F)F` [Gas R152a, 1,1-Difluoroethane], the Dielectric strength in data set [2] stood at 5.9 kV/0.1 inch gap. The “Breakdown voltage at maximum pressure” value in data set [3] worked out at 29.5 kV/0.1 inch gap. With `Cl` [HCl, hydrogen chloride], the “Breakdown voltage compared with air” value in data set [3] is recorded as “greater then air”.

Regarding `FC(F)(F)C(F)(F)F` [Hexafluoroethane], the “MY BP” value in data set [1] was −78.2 °C. As to `Cl` [Hydrogen chloride], the “MY BP” value in data set [1] is −85.0 °C.

Turning to `N#N` [Nitrogen], in data set [1], the “MY BP” value was −195.8 °C. `[N-]=[N+]=O` [Nitrous oxide]: in data set [1], the “MY BP” value is −88.5 °C. Regarding `FC(F)(F)C(F)(F)C(F)(F)F` [Octafluoropropane], in data set [1], the “MY BP” value is −36.7 °C. `FS(F)(F)(F)(F)F` [SF6, Sulfur hexafluoride] returned a Dielectric strength in data set [2] of 14.0 kV/0.1 inch gap. The “Temperature below which it does not decompose” value in data set [4] was at least 500 °C. Moreover, the “Breakdown voltage at maximum pressure” value in data set [3] was found to be 70 kV/0.1 inch gap. The “Breakdown voltage compared with air” value in data set [5] was “nearly three times higher than air”. For the same molecule, the Toxicity entry in data set [6] is given as “non-toxic”. On to `F[Si](F)(F)F` [SiF4, silicon tetrafluoride], for which the “Breakdown voltage compared with air” value in data set [3] is “greater then air”. `FC(F)(F)F` [Tetrafluoromethane]: the “MY BP” value in data set [1] is −128.1 °C. On to `N#CC(F)(F)F` [Trifluoroacetonitrile], for which the “MY BP” value in data set [1] is −68.8 °C.

In the case of `FC(F)F` [Trifluoromethane], the “MY BP” value in data set [1] is −82.1 °C. `O=CC(F)(F)F` [trifluoroacetaldehyde]: the “MY BP” value in data set [1] was −21.0 °C. Regarding `FC(F)(F)S` [trifluoromethane thiol], the “MY BP” value in data set [1] was −36.7 °C.

The values above are taken from US20100320428A1, “GASEOUS DIELECTRICS WITH LOW GLOBAL WARMING POTENTIALS” (priority 2006, published 2010).
